Experimental data: patent publication US20140004209A1, “AUTOPHAGY INDUCER AND INHIBITOR COMBINATION THERAPY FOR THE TREATMENT OF NEOPLASMS” (GENENTECH, INC., priority 2010, published 2014)
“Also recorded” adds a separate entry of the source. Where a SMILES comes first, the peptide text is derived from it. [ ]: non-standard residue; d: D form. The star is where a group is joined. Sta = CC(C)C[C@H](N)[C@@H](O)CC(=O)O; Isovaleryl = CC(C)CC(=O)*; Nle = CCCC[C@H](N)C(=O)O; Cbz = O=C(OCc1ccccc1)*; CH2F = FC*

Columns and labels:
[1] = system: PC3 cells; assay: Microarray analysis of autophagy gene expression in PC3 cells; type: cell-based, human; conditions: 1 or 5 μM for 6 or 24 hours, normalized to DMSO
Method: PC3 cells were induced to express shRNA to indicated Akt isoforms for 72 hours by Doxycycline, RNA was extracted from both Dox treated (Dox+) or untreated control (Dox−) cells. Microarray analysis was carried out using Affymetrix chips. Ratios of the expression levels of each autophagy gene from Dox+ and Dox− samples are shown. Data are mean values from 3 independent experiments.
RNA was extracted from the cells. Microarray analysis was carried out using Affymetrix chips. Expression levels of each autophagy gene are normalized to the DMSO controls. Data are mean values from 3 independent experiments.

[2] = Autophagic vacuole accumulation by side scatter (SSC) in a flow cytometer; type: cell-based
Text: Inhibitors include 3-phenyl-2-(4-((4-(5-(pyridin-2-yl)-1H-1,2,4-triazol-3-yl)piperidin-1-yl)methyl)phenyl)-1,6-naphthyridin-5(6H)-one (II-3), benzyl 2-(4-(3-ethylureido)phenyl)-4-(1,4-oxazepan-4-yl)-5H-pyrrolo[3,4-d]pyrimidine-6(7H)-carboxylate (III-1); 1-ethyl-3-(4-(4-morpholino-7-(pyrimidin-2-yl)-5,6,7,8-tetrahydropyrido[3,4-d]pyrimidin-2-yl)phenyl)urea (III-2), (R)-1-(44(2-(2-aminopyrimidin-5-yl)-7-methyl-4-morpholinothieno[3,2-d]pyrimidin-6-yl)methyl)piperazin-1-yl)-2-hydroxypropan-1-one (III-3), 4-(2-(1H-indazol-4-yl)-6-((4-(methylsulfonyl)piperazin-1-yl)methyl)thieno[3,2-d]pyrimidin-4-yl)morpholine (III-6), (S)—N-(4-(benzo[d][1,3]dioxol-5-yl)thiazol-2-yl)-N-(3-(2-formylpiperidin-1-yl)propyl)thiophene-2-carboxamide (IV-2) and Rapamycin.
FIG. 14 depicts CQ (10 μM) increases the number and size of autophagic vacuoles when combined with the various mTOR, PI3K, and Akt inhibitors.

[3] = system: PC3 cells; assay: PC3 cell viability and cell death (PI exclusion, annexin V, caspase-3/7); type: cell-based, human
Method: Cell viability and cell cycle analysis. Cell number and viability was measured using trypan blue exclusion assay using a Vi-Cell Analyzer (Beckman Coulter), or labeled with 1 μg/ml PI in PBS/1% BSA followed by cytofluorometric analysis with a fluorescence-activated cell sorter (FACS) (Becton Dickinson). FITC-conjugated Annexin V was used for the assessment of phosphatidylserine exposure by FACS analysis. Caspase activation was analyzed using a Caspase-Glo 3/7 Assay kit (Promega). For cell cycle analysis, cells were fixed with drop-wise addition of chilled 70% ethanol, washed with PBS and resuspended in staining solution containing 50 μg/ml PI and 60 units of RNAse A. DNA content was analyzed by flow cytometry using the FlowJo and ModFit software (Becton Dickinson).

[4] = system: PC3 cells; assay: Autophagy markers in PC3 cells (EM AVs, GFP-LC3, LC3-II/LC3-I, MDC, AO); type: cell-based, human; conditions: 3-MA pretreatment
Method: Western blot analysis, immunofluorescence, 1HC and TUNEL assay: For Western blot analysis, total protein lysates were subjected to SDS-PAGE and transferred to nitrocellulose. […] Detection and quantification were performed using an Odyssey infrared scanner (LICOR) using the manufacturer's software. For immunofluorescence staining, cells were fixed in 3% paraformaldehyde and permeabilized with 0.01% digitonin in PBS, followed by a rabbit polyclonal anti-LC3 (Abgent) primary antibody detected with a cy3-conjugated anti-rabbit secondary antibody (Jackson Immunoresearch). For IHC, formalin-fixed, paraffin-embedded specimens were collected. 5-μm-thick paraffin-embedded sections were stained using an anti-Ki-67 (MIB-1, DakoCytomation) antibody with the Dako ARK kit (Dako Corporation). Tissues were counterstained with haematoxylin, dehydrated, and mounted. In all cases, antigen retrieval was performed with the Dako Target Retrieval Kit as per manufacturer's instructions. For TUNEL assay, formalin-fixed, paraffin-embedded sections were stained using an in situ cell death detection kit (POD; Roche Diagnostic) according to the manufacturer's instructions.
Ultrathin sections were stained with uranyl acetate and lead citrate. Numbers of AV were counted on systematically sampled cytoplasmic areas of 4.5 μm^2 (n≧64 per condition). The percent AV area was measured by means of a square mesh grid laid over ≧5 sets of systematically sampled micrographs with each set covering a cytoplasmic area ≧80 μm^2. The average percent of apoptotic nuclei in tumor tissues was calculated from the number of apoptotic nuclei in 3 to 4 sets of 100 systematically counted tumor cell nuclei.
Multispectral imaging flow cytometry: Cells treated with various agents were stained with Acridine Orange and analyzed by the ImageStream system (Amnis Corporation, Seattle, Wash.) using the IDEAS image analysis program. The DNA AOGreen image and the vacuolar AO Red image were first compensated into separate channels, and then the percentage of apoptotic/anucleate cells (based on AO nuclear morphology and intensity) and vacuolated cells (AO Red+) were quantified. […] AORed Intensity is plotted on the second histogram with an arbitrary gate (R5) drawn to include events with the brightest AO Red intensity.

[5] = system: PC3 cells; assay: Mitochondrial superoxide (MitoSOX red) and cellular ROS in PC3 cells; type: cell-based, human
Method: (B) PC3 cells treated as in A were stained with the Image-iT LIVE green ROS Detection kit and examined by fluorescence microscopy at 24 h. […] (C) Quantification of MitoSOX red and ROS green fluorescence intensities by flow cytometry at 24 h. Cells were treated as in A and B. Error bars represent SEM (n=3).
Because mitochondria are the primary intracellular source of superoxide (O2^−) generation, we analyzed O2^− production using MitoSOX red, an O2^− indicator that accumulates in the mitochondria as a function of membrane potential and fluoresces upon oxidation and subsequent binding to DNA.

In the case of `NC(=O)[C@@H]1CCCCN1CCCN(C(=O)c1cccs1)c1nc(-c2cc(-c3ccccc3)no2)cs1` [IV-1, (S)-1-(3-(N-(4-(3-phenylisoxazol-5-yl)thiazol-2-yl)thiophene-2-carboxamido)propyl)piperidine-2-carboxamide], the autophagy gene expression [1] is reported as “induce autophagy gene expression”.

With `O=c1[nH]ccc2nc(-c3ccc(CN4CCC(c5n[nH]c(-c6ccccn6)n5)CC4)cc3)c(-c3ccccc3)cc12` [II-3, 3-phenyl-2-(4-((4-(5-(pyridin-2-yl)-1H-1,2,4-triazol-3-yl)piperidin-1-yl)methyl)phenyl)-1,6-naphthyridin-5(6H)-one] the “autophagic vacuole accumulation (SSC), inhibitor alone” value [2] was “induce increased autophagic vacuole accumulation”.

For `Cc1nc(-c2ccc(CN3CCC(n4c(=O)[nH]c5ccccc54)CC3)cc2)c(-c2ccccc2)nc1O` [II-1, 1-(1-(4-(5-hydroxy-6-methyl-3-phenylpyrazin-2-yl)benzyl)piperidin-4-yl)-1H-benzo[d]imidazol-2(3H)-one], the autophagy gene expression [1] was “induce autophagy gene expression”.

In the case of `CO[C@H]1C[C@@H]2CC[C@@H](C)[C@@](O)(O2)C(=O)C(=O)N2CCCC[C@H]2C(=O)O[C@H]([C@H](C)C[C@@H]2CC[C@@H](O)[C@H](OC)C2)CC(=O)[C@H](C)/C=C(\C)[C@@H](O)[C@@H](OC)C(=O)[C@H](C)C[C@H](C)/C=C/C=C/C=C/1C` [Rapamycin, rapamycin], the “autophagic vacuole accumulation (SSC), inhibitor alone” value [2] is reported as “induce increased autophagic vacuole accumulation”.

For `CC(NC(=O)[C@H](Cc1ccccc1)NC(=O)OCc1ccccc1)C(=O)CF` (stereo partly drawn) [zFA.fmk], the “rescue of cell death induced by II-4 (Akti) and CQ” value (“rescue of cell death induced” below) [3] was “Neither of the broad-spectrum cysteine protease inhibitors zFA.fmk and N-Acetyl-Leu-Leu-Nle-CHO nor a more specific cathepsin B inhibitor CA-074-Me showed significant rescue of cell death”.

In the case of `CC(C)CC(=O)N[C@H](C(=O)N[C@H](C(=O)N[C@@H](CC(C)C)[C@@H](O)CC(=O)N[C@@H](C)C(=O)N[C@@H](CC(C)C)[C@@H](O)CC(=O)O)C(C)C)C(C)C` [pepstatin A] (Isovaleryl-VV[Sta]A[Sta]-OH), the “cell death in combination with II-4 (Akti)” value [3] is reported as “promoted cell death together with Akti-112”.

In the case of `CCCNC(=O)[C@H]1O[C@@H]1C(=O)N[C@H](C(=O)N1CCC[C@H]1C(=O)OC)[C@@H](C)CC` [CA-074-Me], the “rescue of cell death induced” value [3] is reported as “Neither of the broad-spectrum cysteine protease inhibitors zFA.fmk and N-Acetyl-Leu-Leu-Nle-CHO nor a more specific cathepsin B inhibitor CA-074-Me showed significant rescue of cell death”.

With `CCNC(=O)Nc1ccc(-c2nc3c(c(N4CCOCC4)n2)CCN(c2ncccn2)C3)cc1` [III-2, 1-ethyl-3-(4-(4-morpholino-7-(pyrimidin-2-yl)-5,6,7,8-tetrahydropyrido[3,4-d]pyrimidin-2-yl)phenyl)urea] the “autophagic vacuole accumulation (SSC), inhibitor alone” value [2] was “induce increased autophagic vacuole accumulation”.

With `CCCC[C@@H](C=O)NC(=O)[C@H](CC(C)C)NC(=O)[C@H](CC(C)C)NC(C)=O` [N-Acetyl-Leu-Leu-Nle-CHO] (Ac-Leu-Leu-[Nle]-aldehyde) the “rescue of cell death induced” value [3] was “Neither of the broad-spectrum cysteine protease inhibitors zFA.fmk and N-Acetyl-Leu-Leu-Nle-CHO nor a more specific cathepsin B inhibitor CA-074-Me showed significant rescue of cell death”.

For `CO/C1=C\C(C)=C\[C@@H](C)[C@@H](O)[C@@H](C)C/C(C)=C/C=C/[C@H](OC)[C@@H]([C@@H](C)[C@@H](O)[C@H](C)[C@@]2(O)C[C@@H](O)[C@H](C)[C@@H](C(C)C)O2)OC1=O` [Ba, bafilomycin A1], the “cell death in combination with shAkt123” value ([3]; Dox, 10 μM CQ or […] Ba, 0.5% or 0% FBS) was “promoted cell death in combination with shAkt 123”.

For `Cn1cnc(N)c2ncnc1-2` [3-MA, 3-methyladenine], the “effect of 3-MA pretreatment on cell death promoted by CQ or Ba in shAkt expressing cells” value ([3]; 1 mM 3-MA) was “delayed this effect; also recorded: suppressed the cell death-promoting effect of either CQ or Ba”, the “effect of 3-MA on rate of cell death in III-5 and CQ treated cells” value ([3]; 3-MA pretreatment) was “slowed down the rate of cell death” and the “effect of 3-MA on LC3-II to -I ratios and MDC+ vacuoles in III-5 and CQ treated cells” value [4] was “suppressed this effect; also recorded: reduced both LC3-II to -I ratios and the accumulation of MDC^+ vacuoles”. For the same compound, the “effect of 3-MA pretreatment on ROS levels” value [5] was “reduced ROS signals generated by CQ, Akti and Akti+CQ; also recorded: reduced ROS levels induced by II-4”.

For `Cc1c(CN2CCN(C(=O)[C@@H](C)O)CC2)sc2c(N3CCOCC3)nc(-c3cnc(N)nc3)nc12` [III-3], the “autophagic vacuole accumulation (SSC), inhibitor alone” value [2] was “induce increased autophagic vacuole accumulation”.

With `COC(=O)C[C@H](NC(=O)[C@H](C)NC(=O)[C@@H](NC(=O)OCc1ccccc1)C(C)C)C(=O)CF` [zVAD.fmk] (Cbz-Val-Ala-Asp(OMe)-CH2F) the “rescue of cell death induced” value [3] was “partially rescued cell death at all concentrations tested”.

For `CCNC(=O)Nc1ccc(-c2nc3c(c(N4CCCOCC4)n2)CN(C(=O)OCc2ccccc2)C3)cc1` [III-1, benzyl 2-(4-(3-ethylureido)phenyl)-4-(1,4-oxazepan-4-yl)-5H-pyrrolo[3,4-d]pyrimidine-6(7H)-carboxylate], the “autophagic vacuole accumulation (SSC), inhibitor alone” value [2] was “induce increased autophagic vacuole accumulation”.

In the case of `O=C[C@@H]1CCCCN1CCCN(C(=O)c1cccs1)c1nc(-c2ccc3c(c2)OCO3)cs1` [IV-2, (S)—N-(4-(benzo[d][1,3]dioxol-5-yl)thiazol-2-yl)-N-(3-(2-formylpiperidin-1-yl)propyl)thiophene-2-carboxamide], the “autophagic vacuole accumulation (SSC), inhibitor alone” value [2] is reported as “induce increased autophagic vacuole accumulation”.
